Source: BindingDB's records for doi:10.1021/jm980551o (Novartis, 1999)

Assay: Inhibition of EGF-dependent mouse keratinocyte MK cell proliferation

Q: Which IC50 does the source give for `COc1cc2ncnc(Nc3cccc(Cl)c3)c2cc1OC` here?
A: The IC50 was < 100 nM.
